Assay results reported in US20220249599A1, “TREATMENT OF IMPLANTS WITH ENGINEERED ANTIMICROBIAL AMPHIPHILIC PEPTIDES” (priority 2018, published 2022).
Read-outs that look alike come from different tables or passages of the source.

Columns and labels:
[1] = tested on: Enterococcus faecium (n = 104); experiment: microbe, parasite or virus in culture; conditions: Enterococcus faecium (n = 104)
Description: Comparator antibiotics were supplied by Micromyx, and stock solutions were prepared on the first day of testing using solvents recommended by CLSI (1). Stock solutions of all compounds were made at 40× the final testing concentration and stored at −80° C. prior to testing. Information regarding compound source, catalog and lot number, testing concentrations and drug diluent for the comparators and test agent are detailed below in Table 3.
The test organisms evaluated in this study consisted of clinical isolates from the Micromyx Repository and reference isolates from the American Type Culture Collection (ATCC; Manassas, Va.). The clinical isolates were obtained from USA hospitals. Upon initial receipt at Micromyx, the organisms were sub-cultured onto an appropriate agar medium. Following incubation, colonies were harvested from these plates and cell suspensions prepared and frozen at −80° C. with a cryoprotectant. Prior to testing, the isolates were streaked from frozen vials onto Trypticase Soy Agar with 5% sheep blood (Becton Dickenson [BD]; Sparks, MD; Lot Nos. 7173618, 7166759, 7208688, 72144895, 7228505 and Remel Lenexa, Kans. Lot No. 212574). Plates were incubated at 35° C. overnight.
Mueller Hinton II broth (MHB II; BD; Lot Nos. 6258541 and 7143896) was used for MIC testing of aerobic organisms.
MIC values were determined using a broth microdilution procedure described by CLSI (1, 3). Automated liquid handlers (Multidrop 384, Labsystems, Helsinki, Finland; Biomek 2000 and Biomek FX, Beckman Coulter, Fullerton Calif.) were used to conduct serial dilutions and liquid transfers.
To prepare the drug mother plates, which would provide the serial drug dilutions for the replicate daughter plates, the wells of columns 2-12 of standard 96-well microdilution plates (Costar 3795) were filled with 150 µl of the designated diluent for each row of drug. The test articles and comparator compounds ([…] at 40× the highest concentration to be tested) were dispensed into the appropriate wells in column 1. The Biomek 2000 was then used to make 2-fold serial dilutions in the mother plates from column 1 through column 11. The wells of Column 12 contained no drug and served as the organism growth control wells for the assay.
The daughter plates were loaded with […] per well of MHB II using the Multidrop 384. The daughter plates were completed on the Biomek FX instrument which transferred 5 µL of drug solution from each well of a mother plate to the corresponding well of each daughter plate in a single step. A standardized inoculum of each test organism was prepared per CLSI methods (1). The inoculum for each organism was dispensed into sterile reservoirs divided by length (Beckman Coulter), and the Biomek 2000 was used to inoculate the plates. Daughter plates were placed on the Biomek 2000 work surface in reverse orientation so that inoculation took place from low to high drug concentration.
Plates were stacked 3-4 high, covered with a lid on the top plate, placed in plastic bags, and incubated at 35° C. for 16 to 20 hrs. Following incubation, the microplates were removed from the incubator and viewed from the bottom using a plate viewer. […] The MIC was read and recorded as the lowest concentration of drug that inhibited visible growth of the organism.
Clinical breakpoints to determine percent resistance within a given organism group were obtained from CLSI (3), with the exception of colistin for K. pneumoniae, Enterobacter spp., and E. coli, which are only available from EUCAST.

[2] = tested on: Staphylococcus aureus (n = 104); experiment: microbe, parasite or virus in culture; assay type: cell-based; conditions: Staphylococcus aureus (n = 104)
Description: (§1) The clinical isolates were obtained from USA hospitals. […] Plates were incubated at 35° C. overnight.

[3] = tested on: Acinetobacter spp. (n = 104); assay type: cell-based; conditions: Acinetobacter spp. (n = 104), CLSI breakpoints
Description: as §1

[4] = tested on: Escherichia coli (n = 101); assay type: cell-based; conditions: Escherichia coli (n = 101), CLSI breakpoints, colistin EUCAST
Description: as §1

[5] = tested on: Klebsiella pneumoniae (n = 101); assay type: cell-based
Description: as §1

[6] = tested on: Pseudomonas aeruginosa (n = 109); assay type: cell-based; conditions: Pseudomonas aeruginosa (n = 109), CLSI breakpoints
Description: as §1

[7] = tested on: Enterobacter spp. (n = 102); assay type: cell-based, Enterobacter aerogenes and E. cloacae; conditions: Enterobacter spp. (n = 102)
Description: as §1

CC(=O)NC[C@H]1CN(c2ccc(N3CCOCC3)c(F)c2)C(=O)O1 [Linezolid]
MIC range [1]: 1 to 32 µg/mL | % R (isolates resistant) ([1]; CLSI breakpoints): 3.8% | MIC range ([1]; listed as linezolid): 1 to 32 µg/mL | % R (isolates resistant) ([2]; CLSI breakpoints): 1.9% | MIC range ([2]; all methicillin-resistant): 1 to 8 µg/mL

NC[C@H]1O[C@H](O[C@H]2[C@H](O)[C@@H](O[C@H]3O[C@H](CO)[C@@H](O)[C@H](N)[C@H]3O)[C@H](N)C[C@@H]2N)[C@H](N)C[C@@H]1O [Tobramycin]
% R (isolates resistant) [3]: 49.0% | % R (isolates resistant) [4]: 21.7% | % R (isolates resistant) [5]: over 60% | % R (isolates resistant) ([5]; Klebsiella pneumoniae (n = 101), CLSI breakpoints, colistin EUCAST): 59.4% | % R (isolates resistant) [6]: 7.4% | MIC range [7]: 0.12 to 64 µg/mL | % R (isolates resistant) ([7]; CLSI breakpoints, colistin EUCAST): 3.9%
